Laboratory results from the NIST ThermoML archive (doi:10.1021/acs.jced.8b00015).
± gives the expanded uncertainty stated by the source.

How the values were obtained:
[1] = xn = mol fraction of the nth substance listed; details: 298.15 K, 101.3 kPa, Liquid
[2] = Crystal; DTA

Row | SMILES | mass density ([1]; Pycnometric method, x2 = 0.143) [kg/m3] | mass density ([1]; Pycnometric method, x1 = 0.2) [kg/m3] | mass density ([1]; Pycnometric method, x1 = 0.25) [kg/m3] | further results
1 | CN(CCO)CCO [N-methyldiethanolamine] + C[N+](C)(C)CCO.[Cl-] | 1046.8 ± 21 |  |  | mass density ([1]; Pycnometric method, x2 = 0.125): 1053.8 ± 21 kg/m3
2 | C[N+](C)(C)CCO.[Cl-] [choline chloride] + OCCO |  |  |  | mass density ([1]; Vibrating tube method, x1 = 0.333): 1116.8 ± 22 kg/m3
3 | C[N+](C)(C)CCO.[Cl-] [choline chloride] + OCCOCCO |  | 1112.1 ± 22 | 1116.9 ± 22 | 
4 | OCCNCCO [diethanolamine] |  |  |  | Normal melting temperature [2]: 27.00 ± 0.5 °C
5 | OCCNCCO [diethanolamine] + CCCC[N+](CCCC)(CCCC)CCCC.[Br-] | 1092.7 ± 22 |  |  | 
6 | OCCNCCO [diethanolamine] + C[N+](C)(C)CCO.[Cl-] | 1098.4 ± 22 |  |  | 
7 | CCCC[N+](CCCC)(CCCC)CCCC.[Br-] [tetrabutylammonium bromide] + CN(CCO)CCO |  | 1056.9 ± 21 | 1051.3 ± 21 | 
8 | CCCC[N+](CCCC)(CCCC)CCCC.[Br-] [tetrabutylammonium bromide] + OCCO |  | 1072.7 ± 22 | 1069.8 ± 21 | mass density ([1]; Pycnometric method, x1 = 0.333): 1065.8 ± 21 kg/m3
9 | CCCC[N+](CCCC)(CCCC)CCCC.[Br-] [tetrabutylammonium bromide] + OCCOCCO |  | 1081.8 ± 22 | 1078.2 ± 22 | mass density ([1]; Pycnometric method, x1 = 0.333): 1075.4 ± 22 kg/m3
